Test results from ChEMBL document CHEMBL4373743, “Selective apoptosis-inducing activity of synthetic hydrocarbon-stapled SOS1 helix with d-amino acids in H358 cancer cells expressing KRASG12C” (Eur J Med Chem, 2020).
Active and inactive are the calls of the source. The calls are words filed in the database; no cut-off is given here. Bridge positions count the residues as written; N and C are the ends. Square brackets hold non-standard residues; d marks the D form. Peptide text beside a SMILES is read from it. S5 = C=CCCC[C@](C)(N)C(=O)O

Legend:
[1] = system: A549; test: Antiproliferative activity against human A549 cells harboring KRAS G12S mutant at 0.37 to 10 uM incubated for 24 hrs by MTT assay; type: functional, cell-based
[2] = system: GTPase KRas (Homo sapiens), P01116 [G12C]; test: Inhibition of mant-GDP bound N-terminal His6-tagged recombinant KRAS G12C mutant (unknown origin) by fluorescence based assay
Chain of GTPase KRas (Homo sapiens), P01116 [G12C] (P01116 whole entry G12C): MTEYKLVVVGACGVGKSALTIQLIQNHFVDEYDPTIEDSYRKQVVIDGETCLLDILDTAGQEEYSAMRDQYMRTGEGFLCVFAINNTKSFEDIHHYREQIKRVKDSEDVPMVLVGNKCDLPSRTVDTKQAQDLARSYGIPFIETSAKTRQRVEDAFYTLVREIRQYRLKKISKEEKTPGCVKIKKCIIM

[3] = system: A549; test: Induction of cell cycle arrest in human A549 cells harboring KRAS G12S mutant assessed as reduction in CDK1 protein expression at 40 uM incubated for 24 hrs by Western blot analysis; type: functional, cell-based
[4] = system: NCI-H358; test: Induction of apoptosis in human NCI-H358 cells harboring KRAS G12C mutant assessed as viable cells at 2.5 uM incubated for 24 hrs by Annexin V-FITC/PI staining based flow cytometric analysis (reference value: 67.2%); type: functional; details: NCI-H358, 24 h, read-out: Activity
[5] = system: NCI-H358; test: Induction of apoptosis in human NCI-H358 cells harboring KRAS G12C mutant assessed as early apoptotic cells at 2.5 uM incubated for 24 hrs by Annexin V-FITC/PI staining based flow cytometric analysis (reference value: 4.34%); type: functional
[6] = system: NCI-H358; test: Induction of apoptosis in human NCI-H358 cells harboring KRAS G12C mutant assessed as late apoptotic cells at 20 uM incubated for 24 hrs by Annexin V-FITC/PI staining based flow cytometric analysis (reference value: 28.2%); type: functional
[7] = system: NCI-H358; test: Induction of apoptosis in human NCI-H358 cells harboring KRAS G12C mutant assessed as necrotic cells at 20 uM incubated for 24 hrs by Annexin V-FITC/PI staining based flow cytometric analysis (reference value: 0.28%); type: functional
[8] = system: A549; test: Induction of apoptosis in human A549 cells harboring KRAS G12S mutant assessed as early apoptotic cells at 2.5 uM incubated for 24 hrs by Annexin V-FITC/PI staining based flow cytometric analysis (reference value: 6.09%); type: functional
[9] = system: A549; test: Induction of apoptosis in human A549 cells harboring KRAS G12S mutant assessed as late apoptotic cells at 2.5 uM incubated for 24 hrs by Annexin V-FITC/PI staining based flow cytometric analysis (reference value: 25.4%); type: functional
[10] = system: A549; test: Induction of apoptosis in human A549 cells harboring KRAS G12S mutant assessed as early apoptotic cells at 10 uM incubated for 24 hrs by Annexin V-FITC/PI staining based flow cytometric analysis (reference value: 6.09%); type: functional
[11] = system: A549; test: Induction of apoptosis in human A549 cells harboring KRAS G12S mutant assessed as late apoptotic cells at 10 uM incubated for 24 hrs by Annexin V-FITC/PI staining based flow cytometric analysis (reference value: 25.4%); type: functional
[12] = system: A549; test: Induction of apoptosis in human A549 cells harboring KRAS G12S mutant assessed as viable cells at 20 uM incubated for 24 hrs by Annexin V-FITC/PI staining based flow cytometric analysis (reference value: 68.3%); type: functional; details: A549, 24 h, read-out: Activity
[13] = system: NCI-H358; test: Induction of apoptosis in human NCI-H358 cells harboring KRAS G12C mutant incubated for 24 hrs by Annexin V-FITC/PI staining based flow cytometric analysis; type: functional, cell-based
[14] = system: A549; test: Induction of apoptosis in human A549 cells harboring KRAS G12S mutant assessed as increase in caspase3 protein level at 40 uM incubated for 24 hrs by Western blot analysis; type: functional, cell-based

**Q.** Which results are given for `CC[C@H](C)[C@H](NC(=O)CNC(=O)[C@H](Cc1ccccc1)NC(=O)[C@H](Cc1ccccc1)NC(=O)[C@H](CCCNC(=N)N)NC(=O)[C@H](CCCNC(=N)N)NC(C)=O)C(=O)N[C@@]1(C)CCC/C=C\CCC[C@@](C)(C(=O)N[C@@H](CC(C)C)C(=O)N[C@@H](CCCCN)C(=O)N[C@H](C(=O)N[C@@H](CCC(=O)O)C(=O)N[C@@H](CCC(=O)O)C(=O)NCC(=O)N[C@@H](CC(N)=O)C(=O)O)[C@@H](C)O)NC(=O)[C@H](CC(N)=O)NC(=O)[C@H](CC(=O)O)NC(=O)[C@H]([C@@H](C)O)NC(=O)[C@H](CC(C)C)NC(=O)[C@H](CC(=O)O)NC1=O` (Ac-RRFFGI[S5]DLTDN[S5]LKTEEGN-OH; staple (Z) 7-13)?
**A.** Activity [1]: inactive; inhibition [2]: Dose-dependent effect; Activity [3]: inactive; viability at 2.5 µM [4]: 62.7%; Activity [5]: 4.22%; Activity [6]: 46.6%; Activity [7]: 0.21%; Activity [8]: 2.65%; Activity [9]: 38.5%; Activity [10]: 1.79%; Activity [11]: 30.1%; viability at 20 µM [12]: 67.3%; Activity [13]: Dose-dependent effect; Activity [14]: inactive
